Laboratory results taken from US20100130522A1, “COMPOUNDS FOR INFLAMMATION AND IMMUNE-RELATED USES” (Synta Pharmaceuticals Corp., priority 2008, published 2010).

Tests used:
[1] = test system: IL-2 production, Jurkat cells; test: Inhibition of IL-2 production in PHA-activated Jurkat cells (ELISA); format: cell-based; conditions: Homo sapiens, 1% FBS, given as activity class
Protocol: Jurkat cells were placed in a 96 well plate (0.5 million cells per well in 1% FBS medium), and then a test compound of this invention was added at different concentrations. After 10 minutes, the cells were activated with PHA (final concentration 2.5 μg/mL) and incubated for 20 hours at 37° C. under 5% CO2. The final volume was 200 μL. Following incubation, the cells were centrifuged, and the supernatants collected and stored at −70° C. prior to assaying for IL-2 production. A commercial ELISA kit (IL-2 Eli-pair, Diaclone Research, Besancon, France) was used to detect production of IL-2, from which dose response curves were obtained. The IC50 value was calculated as the concentration at which 50% of maximum IL-2 production after stimulation was inhibited versus a non-stimulation control.

[2] = biological target: T1, CRACM1/STIM1-CHOK1 (Homo sapiens, UniProt Q96D31); test: Patch clamp inhibition of ICRAC current in CRACM1/STIM1-CHOK1 cells; format: cell-based; conditions: 500 nM; given as activity class
T1 construct: Full length human Stim1, CracM1, CracM2 and CracM3 cDNA; Stim1 induced with doxycycline
Protocol: Manual patch clamp experiments are conducted in the tight-seal whole-cell configuration at room temperature (21-25° C.). Patch pipettes are fashioned from borosilicate glass capillary tubes and have resistances between 2-4 MΩ after filling with standard intracellular solution. High resolution current recordings are acquired with a computer-based patch clamp amplifier system (EPC-10, HEKA, Lambrecht, Germany). All voltages are corrected for a liquid junction potential of 10 mV between external and internal solutions with glutamate as the intracellular anion. Currents are filtered at 2.9 kHz and digitized at 10 μs intervals. Capacitive currents and series resistance are determined and corrected before each voltage ramp using the automatic capacitance compensation of the EPC-10.
Automated patch clamp experiments are conducted with the QPatch 16 (Sophion Bioscience, Ballerup, Denmark) at room temperature (21-25° C.). Immediately following the establishment of giga-seal whole-cell configuration, the cells membrane potential is clamped at 0 mV. Voltage ramps of 50 ms duration spanning the voltage range of −100 to +100 mV are then stimulated at a rate of 0.33 Hz. Currents are filtered at 2.9 kHz and digitized at 200 μs intervals. Capacitive currents and series resistance are determined and corrected before each voltage ramp using the automatic capacitance compensation.
In general, a whole cell patch clamp method is used to examine the effects of a compound of the invention on a channel(s) that mediates ICRAC. In such experiments, a baseline ICRAC measurement is established within the first 70 voltage ramps, or 140 seconds, for a patched cell. Then the cells are perfused with the compound to be tested and the effect of the compound on ICRAC is measured for at least an additional 440 to 500 seconds. A compound that modulates ICRAC (e.g., inhibits) is a compound that is useful in the invention for modulating CRAG ion channel activity.
Off-line analysis with the Heka PatchMaster software is used to separate the ICRAC membrane current from the cells basal background currents. In a typical recording, InsP3 stimulated ICRAC currents begin to develop in 6 to 12 seconds after whole cell is established. Therefore, the first 1-4 voltage ramps represent the basal membrane currents in the absence of ICRAC and the average value is subtracted from all subsequent traces. The current value at −80 mV for each ramp trace is then measured and plotted against time. The resulting current versus time data is exported into a Microsoft Excel spreadsheet. The % ICRAC inhibition in each cell is calculated by comparing the amount of current just prior to the compound perfusion to the amount of current after the cells has been perfused with the compound for 440-500 seconds. The IC50 value and Hill coefficient for each compound is estimated by fitting all the individual data points to a single-site Hill equation.
TREx™-CHO cells were transfected with human Stim1 (recombinant DNA in pcDNA4/TO/myc-His™ A with a myc epitope tag in the N-terminal) and either CracM1, CracM2 or CracM3 (recombinant DNA in pcDNA 3.1 with a HA epitope tag in the N-terminal). Stably expressing cells were selected by growing the transfected cells in antibiotics for two to three weeks. Individual cell clones were isolated via serial dilution. Full length human Stim1, CracM1, CracM2 and CracM3 cDNA, TREx™-CHO cells, pcDNA4/TO/myc-His™ A and pcDNA 3.1 were purchased from Invitrogen (Carlsbad, Calif.). All cells clones are grown in Ham's F-12 media supplemented with 10% fetal bovine serum, penicillin 100 U/ml, streptomycin 100 ? g/ml, Zeocin™ (200 ? g/ml), Geneticin (500 ? g/ml) and blasticidin (10 ? g/ml) in an atmosphere of 95% air/5% CO2. Stim1 expression was induced with doxycycline (1 ? g/ml) for 16-20 hrs. […]

T1 sequence (Q96D31 whole entry): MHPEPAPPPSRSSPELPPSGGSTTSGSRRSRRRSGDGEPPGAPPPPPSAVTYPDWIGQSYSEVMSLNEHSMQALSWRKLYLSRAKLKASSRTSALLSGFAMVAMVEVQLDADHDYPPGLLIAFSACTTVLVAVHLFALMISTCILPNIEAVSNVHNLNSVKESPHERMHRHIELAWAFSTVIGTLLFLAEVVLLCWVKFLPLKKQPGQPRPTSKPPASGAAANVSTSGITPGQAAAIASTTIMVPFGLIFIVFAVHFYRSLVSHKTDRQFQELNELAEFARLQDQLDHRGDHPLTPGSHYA

SMILES: Cc1ccc(C#Cc2cccnc2)cc1-c1cnc(NC(=O)c2c(F)cccc2F)cn1 [Compound 1, 2,6-difluoro-N-(5-(2-methyl-5-(pyridin-3-ylethynyl)phenyl)-pyrazin-2-yl)benzamide]
- IC50 [1]: < 50 nM
- inhibition at 0.5 µM [2]: 70 to 100%

SMILES: Cc1ccc(C#Cc2cccnc2)cc1-c1ccc(NC(=O)c2c(F)cccc2F)cc1 [Compound 2, 2,6-difluoro-N-(2′-methyl-5′-(pyridin-3-ylethynyl)biphenyl-4-yl)benzamide]
- IC50 [1]: < 50 nM
- inhibition at 0.5 µM [2]: 70 to 100%

SMILES: Cc1ccc(Nc2ccccn2)cc1-c1ccc(NC(=O)c2c(F)cccc2F)cc1 [Compound 3, 2,6-difluoro-N-(2′-methyl-5′-(pyridin-2-ylamino)biphenyl-4-yl)benzamide]
- IC50 [1]: < 50 nM
- inhibition at 0.5 µM [2]: 50 to 70%

SMILES: O=C(Nc1ccc(-c2cc(Oc3ccccn3)ccc2Cl)cc1)c1c(F)cccc1F [Compound 4, N-(2′-chloro-5′-(pyridin-2-yloxy)biphenyl-4-yl)-2,6-difluorobenzamide]
- IC50 [1]: < 50 nM
- inhibition at 0.5 µM [2]: 70 to 100%

SMILES: O=C(Nc1ccc(-c2cc(Oc3ccccn3)ccc2Cl)cn1)c1c(F)cccc1F [Compound 5, N-(5-(2-chloro-5-(pyridin-2-yloxy)phenyl)pyridin-2-yl)-2,6-difluorobenzamide]
- IC50 [1]: < 50 nM
- inhibition at 0.5 µM [2]: 70 to 100%

SMILES: Cc1ccc(Oc2cccnc2)cc1-c1ccc(NC(=O)c2c(F)cccc2F)cc1 [Compound 6, 2,6-difluoro-N-(2′-methyl-5′-(pyridin-3-yloxy)biphenyl-4-yl)benzamide]
- IC50 [1]: < 50 nM
- inhibition at 0.5 µM [2]: 70 to 100%

SMILES: Cc1ccc(Oc2cccnc2)cc1-c1ccc(NC(=O)c2c(F)cccc2F)nc1 [Compound 7, 2,6-difluoro-N-(5-(2-methyl-5-(pyridin-3-yloxy)phenyl)-pyridin-2-yl)benzamide]
- IC50 [1]: < 50 nM
- inhibition at 0.5 µM [2]: 70 to 100%

SMILES: Cc1ccc(Oc2cccnc2)cc1-c1cnc(NC(=O)c2c(F)cccc2F)cn1 [Compound 8, 2,6-difluoro-N-(5-(2-methyl-5-(pyridin-3-yloxy)phenyl)-pyrazin-2-yl)benzamide]
- IC50 [1]: < 50 nM
- inhibition at 0.5 µM [2]: 70 to 100%

SMILES: Cc1ccc(Oc2ccccn2)cc1-c1ccc(NC(=O)c2c(F)cccc2F)nc1 [Compound 9, 2,6-difluoro-N-(5-(2-methyl-5-(pyridin-2-yloxy)phenyl)-pyridin-2-yl)benzamide]
- IC50 [1]: < 50 nM
- inhibition at 0.5 µM [2]: 70 to 100%

SMILES: Cc1cnc(Oc2ccc(Cl)c(-c3ccc(NC(=O)c4c(F)cccc4F)cc3)c2)s1 [Compound 10, N-(2′-chloro-5′-(5-methylthiazol-2-yloxy)biphenyl-4-yl)-2,6-difluorobenzamide]
- IC50 [1]: 50 to 100 nM
- inhibition at 0.5 µM [2]: 70 to 100%

SMILES: O=C(Nc1ccc(-c2cc(Oc3nccs3)ccc2Cl)cc1)c1c(F)cccc1F [Compound 11, N-(2′-chloro-5′-(thiazol-2-yloxy)biphenyl-4-yl)-2,6-difluorobenzamide]
- IC50 [1]: < 50 nM
- inhibition at 0.5 µM [2]: 70 to 100%

SMILES: O=C(Nc1ccc(-c2cc(Oc3nccs3)ccc2Cl)cn1)c1c(F)cccc1F [Compound 12, N-(5-(2-chloro-5-(thiazol-2-yloxy)phenyl)pyridin-2-yl)-2,6-difluorobenzamide]
- IC50 [1]: < 50 nM
- inhibition at 0.5 µM [2]: 70 to 100%

SMILES: Cc1ccc(OCc2ccccn2)cc1-c1ccc(NC(=O)c2c(F)cccc2F)cc1 [Compound 13, 2,6-difluoro-N-(2′-methyl-5′-(pyridin-2-ylmethoxy)-biphenyl-4-yl)benzamide]
- IC50 [1]: < 50 nM
- inhibition at 0.5 µM [2]: 70 to 100%

SMILES: Cc1ccc(Cn2ccnc2)cc1-c1ccc(NC(=O)c2c(F)cccc2F)cc1 [Compound 14, N-(5′-((1H-imidazol-1-yl)methyl)-2′-methylbiphenyl-4-yl)-2,6-difluorobenzamide]
- IC50 [1]: < 50 nM
- inhibition at 0.5 µM [2]: 70 to 100%

SMILES: Cc1ccc(CCc2cccnc2)cc1-c1ccc(NC(=O)c2c(F)cccc2F)cc1 [Compound 15, 2,6-difluoro-N-(2′-methyl-5′-(2-(pyridin-3-yl)ethyl)biphenyl-4-yl)benzamide]
- IC50 [1]: < 50 nM
- inhibition at 0.5 µM [2]: 70 to 100%
